In US20170347654A1, “Herbicidal Compounds” (SYNGENTA PARTICIPATIONS AG, priority 2014, published 2017):

Assays:
Test in all cases: Post-emergence efficacy (glasshouse)
Type in all cases: in vivo
Settings in all cases: evaluated after 13 days
[1] = test system: Setaria faberi (SETFA)
Experimental: (§1) Seeds of a variety of test species (such as, for example, Solanum nigrum (SOLNI), Amaranthus retoflexus (AMARE), Setaria faberi (SETFA), Echinochloa crusgalli (ECHCG), Ipomoea hederacea (IPOHE) and Lolium perenne (LOLPE)) are sown in standard soil in pots. After 8 days cultivation (post-emergence) under controlled conditions in a glasshouse (at 24/16° C., day/night; 14 hours light; 65% humidity), the plants are sprayed with an aqueous spray solution derived from the formulation of the technical active ingredient in acetone/water (50:50) solution containing 0.5% Tween 20 (polyoxyethylene sorbitan monolaurate, CAS RN 9005-64-5). Compounds are applied at 1000 and 62.5 g/ha. The test plants are then grown under controlled conditions in a glasshouse (at 24/16° C., day/night; 14 hours light; 65% humidity) and watered twice daily. After 13 days, the test is evaluated for the percentage damage caused to the plant. The biological activities are assessed on a five point scale (5=80-100%; 4=60-79%; 3=40-59%; 2=20-39%; 1=0-19%).

[2] = test system: Ipomoea hederacea (IPOHE)
Experimental: as §1

[3] = test system: Lolium perenne (LOLPE)
Experimental: as §1

[4] = test system: Amaranthus retoflexus (AMARE)
Experimental: as §1

[5] = test system: Echinochloa crusgalli (ECHCG)
Experimental: as §1

[6] = test system: Solanum nigrum (SOLNI)
Experimental: as §1

Compound	percentage damage caused to the plant, SETFA (five point scale) ([1]; 62.5 g/ha)	percentage damage caused to the plant, SETFA (five point scale) ([1]; 1000 g/ha)	percentage damage caused to the plant, IPOHE (five point scale) ([2]; 62.5 g/ha)	percentage damage caused to the plant, IPOHE (five point scale) ([2]; 1000 g/ha)	percentage damage caused to the plant, LOLPE (five point scale) ([3]; 62.5 g/ha)	percentage damage caused to the plant, LOLPE (five point scale) ([3]; 1000 g/ha)	percentage damage caused to the plant, AMARE (five point scale) ([4]; 62.5 g/ha)	percentage damage caused to the plant, AMARE (five point scale) ([4]; 1000 g/ha)	percentage damage caused to the plant, ECHCG (five point scale) ([5]; 62.5 g/ha)	percentage damage caused to the plant, ECHCG (five point scale) ([5]; 1000 g/ha)	percentage damage caused to the plant, SOLNI (five point scale) ([6]; 62.5 g/ha)	percentage damage caused to the plant, SOLNI (five point scale) ([6]; 1000 g/ha)
O=c1c(-c2c(C(F)(F)F)ccc(Cl)c2OCc2ccccc2)c(O)c2scnc2n1CC(F)F [Compound 1.029]	2 (2=20-39%)	5 (5=80-100%)	4 (4=60-79%)	5 (5=80-100%)	2 (2=20-39%)	5 (5=80-100%)	4 (4=60-79%)	5 (5=80-100%)	3 (3=40-59%)	5 (5=80-100%)	5 (5=80-100%)	5 (5=80-100%)
Cn1c(=O)c(-c2c(F)ccc(Cl)c2OCc2ccccc2)c(O)c2scnc21 [Compound 1.017]	1 (1=0-19%)	5 (5=80-100%)	5 (5=80-100%)	5 (5=80-100%)	4 (4=60-79%)	5 (5=80-100%)	4 (4=60-79%)	5 (5=80-100%)	2 (2=20-39%)	5 (5=80-100%)	5 (5=80-100%)	5 (5=80-100%)
O=c1c(-c2c(F)ccc(Cl)c2OCc2ccccc2)c(O)c2scnc2n1CC(F)F [Compound 1.027]	3 (3=40-59%)	5 (5=80-100%)	5 (5=80-100%)	5 (5=80-100%)	4 (4=60-79%)	5 (5=80-100%)	5 (5=80-100%)	5 (5=80-100%)	3 (3=40-59%)	5 (5=80-100%)	5 (5=80-100%)	5 (5=80-100%)
Cn1c(=O)c(-c2c(C(F)(F)F)ccc(Cl)c2OCc2ccccc2)c(O)c2scnc21 [Compound 1.019]	3 (3=40-59%)	5 (5=80-100%)	5 (5=80-100%)	5 (5=80-100%)	3 (3=40-59%)	5 (5=80-100%)	4 (4=60-79%)	5 (5=80-100%)	3 (3=40-59%)	5 (5=80-100%)	5 (5=80-100%)	5 (5=80-100%)
Cn1c(=O)c(-c2c(Cl)ccc(Cl)c2OCc2ccccc2)c(O)c2scnc21 [Compound 1.011]	2 (2=20-39%)	5 (5=80-100%)	5 (5=80-100%)	5 (5=80-100%)	2 (2=20-39%)	5 (5=80-100%)	4 (4=60-79%)	5 (5=80-100%)	3 (3=40-59%)	5 (5=80-100%)	5 (5=80-100%)	5 (5=80-100%)
O=c1c(-c2c(Cl)ccc(Cl)c2OCc2ccccc2)c(O)c2scnc2n1CC(F)F [Compound 1.021]	4 (4=60-79%)	5 (5=80-100%)	5 (5=80-100%)	5 (5=80-100%)	4 (4=60-79%)	5 (5=80-100%)	5 (5=80-100%)	5 (5=80-100%)	4 (4=60-79%)	5 (5=80-100%)	5 (5=80-100%)	5 (5=80-100%)
C#CCn1c(=O)c(-c2c(C(F)(F)F)ccc(Cl)c2OCc2ccccc2)c(O)c2scnc21 [Compound 1.009]	5 (5=80-100%)	5 (5=80-100%)	5 (5=80-100%)	5 (5=80-100%)	5 (5=80-100%)	5 (5=80-100%)	5 (5=80-100%)	5 (5=80-100%)	5 (5=80-100%)	5 (5=80-100%)	5 (5=80-100%)	5 (5=80-100%)
C#CCn1c(=O)c(-c2c(F)ccc(Cl)c2OCc2ccccc2)c(O)c2scnc21 [Compound 1.007]	5 (5=80-100%)	5 (5=80-100%)	5 (5=80-100%)	5 (5=80-100%)	5 (5=80-100%)	5 (5=80-100%)	5 (5=80-100%)	5 (5=80-100%)	5 (5=80-100%)	5 (5=80-100%)	5 (5=80-100%)	5 (5=80-100%)
C#CCn1c(=O)c(-c2c(Cl)ccc(Cl)c2OCc2ccccc2)c(O)c2scnc21 [Compound 1.001, 6-(2-benzyloxy-3,6-dichloro-phenyl)-7-hydroxy-4-prop-2-ynyl-thiazolo[4,5-b]pyridin-5-one]	5 (5=80-100%)	5 (5=80-100%)	5 (5=80-100%)	5 (5=80-100%)	5 (5=80-100%)	5 (5=80-100%)	5 (5=80-100%)	5 (5=80-100%)	5 (5=80-100%)	5 (5=80-100%)	5 (5=80-100%)	5 (5=80-100%)
